Test results from ChEMBL document CHEMBL4507257, “Data for DCP probe ABT-100” (2021).

Experiments:
[1] = target: Alpha-1A adrenergic receptor (Homo sapiens) (UniProt P35348); conditions: Compound concentration 10.0 uM
[2] = target: Mitogen-activated protein kinase kinase kinase kinase 3 (Homo sapiens) (UniProt Q8IVH8); conditions: Compound concentration 1000.0 nM
[3] = test system: Receptor-type tyrosine-protein kinase FLT3 (Homo sapiens), P36888 [K663Q]; conditions: Compound concentration 1000.0 nM
[4] = target: Serine/threonine-protein kinase MRCK beta (Homo sapiens) (UniProt Q9Y5S2); conditions: Compound concentration 1000.0 nM
[5] = target: Cyclin-dependent kinase 14 (Homo sapiens) (UniProt O94921); conditions: Compound concentration 1000.0 nM
[6] = target: Tyrosine-protein kinase Fes/Fps (Homo sapiens) (UniProt P07332); conditions: Compound concentration 1000.0 nM
[7] = target: Serine/threonine-protein kinase MRCK gamma (Homo sapiens) (UniProt Q6DT37); conditions: Compound concentration 1000.0 nM
[8] = test system: Epidermal growth factor receptor (Homo sapiens), P00533 [UNDEFINED MUTATION]; conditions: Compound concentration 1000.0 nM
[9] = target: Platelet-derived growth factor receptor alpha (Homo sapiens) (UniProt P16234); conditions: Compound concentration 1000.0 nM
[10] = target: Proto-oncogene tyrosine-protein kinase receptor Ret (Homo sapiens) (UniProt P07949); conditions: Compound concentration 1000.0 nM
[11] = target: Serine/threonine-protein kinase SIK2 (Homo sapiens) (UniProt Q9H0K1); conditions: Compound concentration 1000.0 nM
[12] = target: Angiopoietin-1 receptor (Homo sapiens) (UniProt Q02763); conditions: Compound concentration 1000.0 nM
[13] = target: Ribosomal protein S6 kinase alpha-5 (Homo sapiens) (UniProt O75582); conditions: Compound concentration 1000.0 nM
[14] = target: Ribosomal protein S6 kinase alpha-6 (Homo sapiens) (UniProt Q9UK32); conditions: Compound concentration 1000.0 nM
[15] = target: Ribosomal protein S6 kinase alpha-3 (Homo sapiens) (UniProt P51812); conditions: Compound concentration 1000.0 nM
[16] = target: Ephrin type-A receptor 5 (Homo sapiens) (UniProt P54756); conditions: Compound concentration 1000.0 nM
[17] = target: Dual specificity tyrosine-phosphorylation-regulated kinase 1A (Homo sapiens) (UniProt Q13627); conditions: Compound concentration 1000.0 nM
[18] = target: Inhibitor of nuclear factor kappa-B kinase subunit alpha (Homo sapiens) (UniProt O15111); conditions: Compound concentration 1000.0 nM
[19] = target: Calcium/calmodulin-dependent protein kinase type 1B (Homo sapiens, UniProt Q6P2M8); conditions: Compound concentration 1000.0 nM
[20] = target: Serine/threonine-protein kinase PRP4 homolog (Homo sapiens) (UniProt Q13523); conditions: Compound concentration 1000.0 nM
[21] = target: Mitotic checkpoint serine/threonine-protein kinase BUB1 (Homo sapiens) (UniProt O43683); conditions: Compound concentration 1000.0 nM
[22] = target: Serine/threonine-protein kinase 32B (Homo sapiens) (UniProt Q9NY57); conditions: Compound concentration 1000.0 nM
[23] = target: T1, 5-hydroxytryptamine receptor 3A (Homo sapiens) (UniProt P46098); conditions: Compound concentration 10.0 uM
T1 sequence (whole entry): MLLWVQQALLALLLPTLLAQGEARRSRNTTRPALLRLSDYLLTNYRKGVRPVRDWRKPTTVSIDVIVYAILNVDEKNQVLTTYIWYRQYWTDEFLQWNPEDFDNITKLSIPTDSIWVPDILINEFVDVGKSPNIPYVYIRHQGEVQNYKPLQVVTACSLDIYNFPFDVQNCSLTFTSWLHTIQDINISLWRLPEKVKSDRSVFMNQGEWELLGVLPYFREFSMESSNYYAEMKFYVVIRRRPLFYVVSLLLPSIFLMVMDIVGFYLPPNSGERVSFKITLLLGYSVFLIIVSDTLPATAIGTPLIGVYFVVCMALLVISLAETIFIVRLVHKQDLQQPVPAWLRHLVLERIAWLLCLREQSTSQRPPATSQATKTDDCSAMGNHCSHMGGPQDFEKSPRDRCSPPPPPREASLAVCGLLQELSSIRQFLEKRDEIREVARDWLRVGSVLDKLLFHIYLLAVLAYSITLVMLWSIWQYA

[24] = target: TRAF2 and NCK-interacting protein kinase (Homo sapiens) (UniProt Q9UKE5); conditions: Compound concentration 1000.0 nM
[25] = target: Serine/threonine-protein kinase TAO3 (Homo sapiens) (UniProt Q9H2K8); conditions: Compound concentration 1000.0 nM
[26] = target: Serine/threonine-protein kinase ULK3 (Homo sapiens) (UniProt Q6PHR2); conditions: Compound concentration 1000.0 nM
[27] = target: Serine/threonine-protein kinase ULK1 (Homo sapiens) (UniProt O75385); conditions: Compound concentration 1000.0 nM
[28] = test system: Epidermal growth factor receptor (Homo sapiens), P00533 [G719C]; conditions: Compound concentration 1000.0 nM
[29] = target: Serine/threonine-protein kinase 32C (Homo sapiens) (UniProt Q86UX6); conditions: Compound concentration 1000.0 nM
[30] = target: cGMP-dependent protein kinase 1 (Homo sapiens) (UniProt Q13976); conditions: Compound concentration 1000.0 nM
[31] = target: Myosin light chain kinase 2, skeletal/cardiac muscle (Homo sapiens) (UniProt Q9H1R3); conditions: Compound concentration 1000.0 nM
[32] = target: Mitogen-activated protein kinase kinase kinase 12 (Homo sapiens) (UniProt Q12852); conditions: Compound concentration 1000.0 nM
[33] = target: Casein kinase I isoform alpha-like (Homo sapiens) (UniProt Q8N752); conditions: Compound concentration 1000.0 nM
[34] = target: Myosin-IIIa (Homo sapiens) (UniProt Q8NEV4); conditions: Compound concentration 1000.0 nM
[35] = target: Cyclin-dependent kinase 4 (Homo sapiens) (UniProt P11802); conditions: Compound concentration 1000.0 nM
[36] = target: Tyrosine-protein kinase Tec (Homo sapiens) (UniProt P42680); conditions: Compound concentration 1000.0 nM
[37] = target: Beta-3 adrenergic receptor (Homo sapiens) (UniProt P13945); conditions: Compound concentration 10.0 uM
[38] = test system: Leucine-rich repeat serine/threonine-protein kinase 2 (Homo sapiens), Q5S007 [G2019S]; conditions: Compound concentration 1000.0 nM

Sequence of Mitogen-activated protein kinase kinase kinase 12 (Homo sapiens) (Q12852 whole entry, canonical isoform): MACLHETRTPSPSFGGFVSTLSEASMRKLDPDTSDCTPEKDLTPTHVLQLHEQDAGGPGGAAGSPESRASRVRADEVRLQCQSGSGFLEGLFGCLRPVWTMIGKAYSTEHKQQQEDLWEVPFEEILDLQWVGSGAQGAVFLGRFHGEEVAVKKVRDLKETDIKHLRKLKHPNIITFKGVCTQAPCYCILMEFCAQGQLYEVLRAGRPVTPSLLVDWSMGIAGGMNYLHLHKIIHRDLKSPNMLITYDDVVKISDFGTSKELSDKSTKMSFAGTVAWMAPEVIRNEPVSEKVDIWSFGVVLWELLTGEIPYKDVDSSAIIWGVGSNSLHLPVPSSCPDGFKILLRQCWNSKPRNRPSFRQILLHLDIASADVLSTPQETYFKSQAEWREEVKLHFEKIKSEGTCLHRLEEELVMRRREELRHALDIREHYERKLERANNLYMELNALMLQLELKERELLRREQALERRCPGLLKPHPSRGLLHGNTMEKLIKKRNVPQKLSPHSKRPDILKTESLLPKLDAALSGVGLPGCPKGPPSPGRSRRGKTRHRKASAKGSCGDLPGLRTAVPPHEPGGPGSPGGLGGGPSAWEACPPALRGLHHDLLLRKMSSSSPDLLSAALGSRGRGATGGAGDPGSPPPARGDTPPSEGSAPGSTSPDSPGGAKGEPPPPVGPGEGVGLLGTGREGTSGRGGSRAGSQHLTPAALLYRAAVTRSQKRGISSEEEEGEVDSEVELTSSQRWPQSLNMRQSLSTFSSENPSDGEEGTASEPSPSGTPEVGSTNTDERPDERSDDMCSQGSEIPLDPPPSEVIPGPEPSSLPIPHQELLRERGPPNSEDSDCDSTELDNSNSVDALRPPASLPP
Sequence of Serine/threonine-protein kinase MRCK beta (Homo sapiens) (Q9Y5S2 whole entry): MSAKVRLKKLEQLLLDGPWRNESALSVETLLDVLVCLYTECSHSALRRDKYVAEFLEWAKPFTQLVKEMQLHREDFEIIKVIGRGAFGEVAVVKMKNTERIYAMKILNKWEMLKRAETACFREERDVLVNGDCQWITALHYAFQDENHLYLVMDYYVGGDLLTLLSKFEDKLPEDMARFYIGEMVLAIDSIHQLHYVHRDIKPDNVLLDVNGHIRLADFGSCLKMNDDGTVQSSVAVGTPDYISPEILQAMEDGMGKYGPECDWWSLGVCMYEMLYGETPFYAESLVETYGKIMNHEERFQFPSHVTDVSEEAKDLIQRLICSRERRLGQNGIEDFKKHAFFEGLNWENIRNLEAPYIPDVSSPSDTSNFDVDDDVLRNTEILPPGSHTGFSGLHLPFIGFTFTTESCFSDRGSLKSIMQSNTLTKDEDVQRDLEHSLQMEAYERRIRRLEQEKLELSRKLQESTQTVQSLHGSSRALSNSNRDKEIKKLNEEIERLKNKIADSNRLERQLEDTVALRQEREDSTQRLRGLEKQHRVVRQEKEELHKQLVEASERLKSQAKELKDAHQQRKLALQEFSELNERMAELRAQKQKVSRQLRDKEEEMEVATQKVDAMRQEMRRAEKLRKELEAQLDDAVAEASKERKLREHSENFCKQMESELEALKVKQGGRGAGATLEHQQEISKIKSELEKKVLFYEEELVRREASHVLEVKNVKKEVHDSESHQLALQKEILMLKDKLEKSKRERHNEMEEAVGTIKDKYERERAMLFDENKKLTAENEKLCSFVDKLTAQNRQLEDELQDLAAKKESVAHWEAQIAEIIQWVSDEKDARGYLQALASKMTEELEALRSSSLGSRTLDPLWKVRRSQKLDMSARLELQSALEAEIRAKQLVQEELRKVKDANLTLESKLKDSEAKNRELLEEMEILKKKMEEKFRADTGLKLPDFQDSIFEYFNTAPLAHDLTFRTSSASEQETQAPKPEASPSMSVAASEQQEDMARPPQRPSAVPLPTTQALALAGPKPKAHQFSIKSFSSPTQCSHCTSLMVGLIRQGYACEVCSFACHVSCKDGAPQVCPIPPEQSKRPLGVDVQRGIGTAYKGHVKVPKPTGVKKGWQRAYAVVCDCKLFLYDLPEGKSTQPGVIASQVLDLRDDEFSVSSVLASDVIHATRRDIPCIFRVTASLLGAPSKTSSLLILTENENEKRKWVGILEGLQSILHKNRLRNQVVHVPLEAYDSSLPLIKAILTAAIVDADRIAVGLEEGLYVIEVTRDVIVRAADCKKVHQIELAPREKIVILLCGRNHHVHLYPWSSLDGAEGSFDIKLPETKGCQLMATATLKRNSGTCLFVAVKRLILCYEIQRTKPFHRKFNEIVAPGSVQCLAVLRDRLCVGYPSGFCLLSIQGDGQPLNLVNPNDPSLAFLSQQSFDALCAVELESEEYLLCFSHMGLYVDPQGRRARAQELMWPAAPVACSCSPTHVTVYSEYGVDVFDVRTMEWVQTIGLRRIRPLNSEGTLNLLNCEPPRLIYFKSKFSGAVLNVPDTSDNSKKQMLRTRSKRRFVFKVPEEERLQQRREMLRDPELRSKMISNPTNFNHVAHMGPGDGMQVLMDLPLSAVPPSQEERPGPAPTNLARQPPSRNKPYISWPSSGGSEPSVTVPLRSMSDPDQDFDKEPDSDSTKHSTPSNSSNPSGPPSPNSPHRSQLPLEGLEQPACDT
Sequence of Myosin light chain kinase 2, skeletal/cardiac muscle (Homo sapiens) (Q9H1R3 whole entry): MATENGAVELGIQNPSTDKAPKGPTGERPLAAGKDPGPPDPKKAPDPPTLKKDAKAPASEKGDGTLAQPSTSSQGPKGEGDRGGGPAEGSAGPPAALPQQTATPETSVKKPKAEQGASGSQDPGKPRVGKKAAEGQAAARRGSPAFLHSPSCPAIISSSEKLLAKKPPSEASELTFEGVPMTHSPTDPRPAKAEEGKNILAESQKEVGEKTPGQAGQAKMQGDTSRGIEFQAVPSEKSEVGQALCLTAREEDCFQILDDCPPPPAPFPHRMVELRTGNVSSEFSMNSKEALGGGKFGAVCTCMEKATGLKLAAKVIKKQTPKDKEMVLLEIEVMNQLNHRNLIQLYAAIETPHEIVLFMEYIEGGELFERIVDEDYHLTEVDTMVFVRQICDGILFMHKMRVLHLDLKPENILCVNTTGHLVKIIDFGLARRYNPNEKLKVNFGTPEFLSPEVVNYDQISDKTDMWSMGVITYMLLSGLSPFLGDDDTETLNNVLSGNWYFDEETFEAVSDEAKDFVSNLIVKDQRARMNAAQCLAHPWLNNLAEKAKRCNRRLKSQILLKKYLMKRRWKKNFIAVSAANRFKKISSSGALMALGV
Sequence of Tyrosine-protein kinase Fes/Fps (Homo sapiens) (P07332 whole entry): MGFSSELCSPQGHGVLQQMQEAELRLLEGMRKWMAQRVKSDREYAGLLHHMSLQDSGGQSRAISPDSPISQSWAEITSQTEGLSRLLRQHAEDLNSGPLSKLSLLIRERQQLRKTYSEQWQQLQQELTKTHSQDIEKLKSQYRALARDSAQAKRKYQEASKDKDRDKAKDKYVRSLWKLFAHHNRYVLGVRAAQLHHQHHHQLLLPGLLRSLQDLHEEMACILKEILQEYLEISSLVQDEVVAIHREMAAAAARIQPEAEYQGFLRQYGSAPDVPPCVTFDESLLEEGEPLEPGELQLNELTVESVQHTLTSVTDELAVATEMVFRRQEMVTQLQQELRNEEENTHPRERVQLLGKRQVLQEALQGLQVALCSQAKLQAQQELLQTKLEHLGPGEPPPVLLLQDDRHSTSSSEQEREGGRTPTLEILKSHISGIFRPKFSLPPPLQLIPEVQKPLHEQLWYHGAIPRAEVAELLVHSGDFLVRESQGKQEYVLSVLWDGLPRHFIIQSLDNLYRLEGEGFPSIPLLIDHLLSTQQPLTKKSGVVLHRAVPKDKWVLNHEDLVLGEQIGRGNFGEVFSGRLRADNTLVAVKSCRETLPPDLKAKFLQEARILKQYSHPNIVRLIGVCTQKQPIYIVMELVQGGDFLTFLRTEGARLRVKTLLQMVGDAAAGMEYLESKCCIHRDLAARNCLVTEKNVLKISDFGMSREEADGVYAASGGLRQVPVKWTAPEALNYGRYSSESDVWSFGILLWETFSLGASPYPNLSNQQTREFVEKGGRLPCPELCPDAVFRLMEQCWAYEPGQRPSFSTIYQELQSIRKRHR
Sequence of Mitotic checkpoint serine/threonine-protein kinase BUB1 (Homo sapiens) (O43683 whole entry, looked up): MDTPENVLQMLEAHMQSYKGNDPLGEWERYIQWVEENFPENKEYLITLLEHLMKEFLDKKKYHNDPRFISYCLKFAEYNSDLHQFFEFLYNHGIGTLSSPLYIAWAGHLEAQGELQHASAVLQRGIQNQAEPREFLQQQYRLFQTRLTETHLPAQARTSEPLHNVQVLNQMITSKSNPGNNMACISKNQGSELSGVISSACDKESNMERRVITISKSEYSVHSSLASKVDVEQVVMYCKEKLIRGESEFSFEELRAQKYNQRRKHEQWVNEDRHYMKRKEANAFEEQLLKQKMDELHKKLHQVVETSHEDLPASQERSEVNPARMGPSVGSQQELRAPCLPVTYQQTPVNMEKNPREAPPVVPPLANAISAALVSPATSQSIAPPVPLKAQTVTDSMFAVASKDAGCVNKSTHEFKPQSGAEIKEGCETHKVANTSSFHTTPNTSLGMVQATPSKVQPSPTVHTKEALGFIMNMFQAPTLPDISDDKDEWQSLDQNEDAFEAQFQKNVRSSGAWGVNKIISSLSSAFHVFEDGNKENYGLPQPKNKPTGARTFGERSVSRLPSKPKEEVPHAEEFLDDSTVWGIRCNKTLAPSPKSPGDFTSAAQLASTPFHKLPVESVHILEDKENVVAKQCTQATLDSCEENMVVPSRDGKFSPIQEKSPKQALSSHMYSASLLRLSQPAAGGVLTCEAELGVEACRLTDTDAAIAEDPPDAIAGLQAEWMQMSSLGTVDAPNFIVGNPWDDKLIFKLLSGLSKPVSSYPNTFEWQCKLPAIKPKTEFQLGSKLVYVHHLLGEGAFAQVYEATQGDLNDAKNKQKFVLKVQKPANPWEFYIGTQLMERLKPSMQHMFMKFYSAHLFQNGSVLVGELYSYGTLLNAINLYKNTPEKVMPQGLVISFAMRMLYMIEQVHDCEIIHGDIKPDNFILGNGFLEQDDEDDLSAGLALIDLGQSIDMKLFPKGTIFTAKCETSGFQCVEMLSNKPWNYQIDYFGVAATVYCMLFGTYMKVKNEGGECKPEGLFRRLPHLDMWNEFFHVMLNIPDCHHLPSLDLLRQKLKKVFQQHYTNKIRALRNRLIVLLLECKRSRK

Cn1cncc1[C@@](O)(COc1ccc(C#N)cc1-c1ccc(OC(F)(F)F)cc1)c1ccc(C#N)cc1 [A-108]
inactive: inhibition [1] 4.51% | residual activity [2] 100% | residual activity [3] 64% | residual activity [4] 95% | residual activity [5] 100% | residual activity [6] 100% | residual activity [7] 96% | residual activity [8] 64% | residual activity [9] 100% | residual activity [10] 100% | residual activity [11] 100% | residual activity [12] 92% | residual activity [13] 88% | residual activity [14] 100% | residual activity [15] 72% | residual activity [16] 67% | residual activity [17] 99% | residual activity [18] 100% | residual activity [19] 100% | residual activity [20] 100% | residual activity [21] 98% | residual activity [22] 97% | inhibition [23] -0.62% | residual activity [24] 99% | residual activity [25] 100% | residual activity [26] 78% | residual activity [27] 95% | residual activity [28] 66% | residual activity [29] 80% | residual activity [30] 94% | residual activity [31] 100% | residual activity [32] 100% | residual activity [33] 100% | residual activity [34] 98% | residual activity [35] 93% | residual activity [36] 100% | inhibition [37] -5.85% | residual activity [38] 91%

Cn1cncc1[C@](O)(COc1ccc(C#N)cc1-c1ccc(OC(F)(F)F)cc1)c1ccc(C#N)cc1 [ABT-100]
inactive: inhibition [1] -7.75% | residual activity [2] 100% | residual activity [3] 90% | residual activity [4] 76% | residual activity [5] 86% | residual activity [6] 100% | residual activity [7] 85% | residual activity [8] 78% | residual activity [9] 100% | residual activity [10] 94% | residual activity [11] 95% | residual activity [12] 92% | residual activity [13] 94% | residual activity [14] 93% | residual activity [15] 87% | residual activity [16] 97% | residual activity [17] 81% | residual activity [18] 86% | residual activity [19] 60% | residual activity [20] 100% | residual activity [21] 85% | residual activity [22] 100% | inhibition [23] 17.6% | residual activity [24] 81% | residual activity [25] 87% | residual activity [26] 88% | residual activity [27] 100% | residual activity [28] 82% | residual activity [29] 84% | residual activity [30] 91% | residual activity [31] 78% | residual activity [32] 100% | residual activity [33] 74% | residual activity [34] 100% | residual activity [35] 100% | residual activity [36] 93% | inhibition [37] 32.9% | residual activity [38] 92%
